# Test results taken from PubChem BioAssay (NCI).
#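 Growth conditions: 96-well plates. Treatment: test compound, 48 hours, 5 concentrations. Analysis: linear interpolation between bracketing concentrations; unreached endpoints set to highest concentration. At the TGI there is no net growth.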
# How the values were obtained:
# Assay in all cases: NCI tumour cell line growth inhibition, 48 h
# SNB-75 CNS = test system: SNB-75 CNS
# SK-OV-3 ovarian = test system: SK-OV-3 ovarian
# SF-268 CNS = test system: SF-268 CNS
# MOLT-4 leukemia = test system: MOLT-4 leukemia
# OVCAR-8 ovarian = test system: OVCAR-8 ovarian
# LOX IMVI melanoma = test system: LOX IMVI melanoma
# OVCAR-4 ovarian = test system: OVCAR-4 ovarian
# HCT-116 colon = test system: HCT-116 colon
# KM12 colon = test system: KM12 colon
# A549 NSCLC = test system: A549 NSCLC
# M14 melanoma = test system: M14 melanoma
# SNB-19 CNS = test system: SNB-19 CNS
# DLD-1 colon = test system: DLD-1 colon
# SF-295 CNS = test system: SF-295 CNS
# KM20L2 colon = test system: KM20L2 colon
# M19-MEL melanoma = test system: M19-MEL melanoma
# SW-620 colon = test system: SW-620 colon
# NCI-H226 lung = test system: NCI-H226 lung
# 786-0 renal = test system: 786-0 renal
# COLO 205 colon = test system: COLO 205 colon
# HOP-92 NSCLC = test system: HOP-92 NSCLC
# NCI-H522 lung = test system: NCI-H522 lung
# OVCAR-5 ovarian = test system: OVCAR-5 ovarian
# UACC-257 melanoma = test system: UACC-257 melanoma
# NCI-H23 lung = test system: NCI-H23 lung
# OVCAR-3 ovarian = test system: OVCAR-3 ovarian
# SNB-78 CNS = test system: SNB-78 CNS
# SF-539 CNS = test system: SF-539 CNS
# K-562 leukemia = test system: K-562 leukemia
# NCI-H460 lung = test system: NCI-H460 lung
# ACHN renal = test system: ACHN renal
# U251 CNS = test system: U251 CNS
# IGROV1 ovarian = test system: IGROV1 ovarian
# UO-31 renal = test system: UO-31 renal
# TK-10 renal = test system: TK-10 renal
# UACC-62 melanoma = test system: UACC-62 melanoma
# LXFL 529 NSCLC = test system: LXFL 529 NSCLC
# HT29 colon = test system: HT29 colon
# HOP-62 NSCLC = test system: HOP-62 NSCLC
# SK-MEL-28 melanoma = test system: SK-MEL-28 melanoma
# CAKI-1 renal = test system: CAKI-1 renal
# RPMI-8226 leukemia = test system: RPMI-8226 leukemia
# SR leukemia = test system: SR leukemia
# HL-60(TB) leukemia = test system: HL-60(TB) leukemia
# DMS 273 small cell lung = test system: DMS 273 small cell lung
# HCC-2998 colon = test system: HCC-2998 colon
# SK-MEL-5 melanoma = test system: SK-MEL-5 melanoma
# DMS 114 small cell lung = test system: DMS 114 small cell lung
# SN12C renal = test system: SN12C renal
# HCT-15 colon = test system: HCT-15 colon
# A498 renal = test system: A498 renal
# MALME-3M melanoma = test system: MALME-3M melanoma
# HOP-18 NSCLC = test system: HOP-18 NSCLC
# CCRF-CEM leukemia = test system: CCRF-CEM leukemia
smiles,measurement,setting,value
Oc1ccccc1-c1n[nH]c(=S)n1/N=C/c1ccc(-c2ccc(Br)cc2)o1,TGI,SNB-75 CNS,> 100 µM
same,TGI,SK-OV-3 ovarian,95.1 µM
same,TGI,SF-268 CNS,> 100 µM
same,TGI,MOLT-4 leukemia,> 100 µM
same,TGI,OVCAR-8 ovarian,90.1 µM
same,TGI,LOX IMVI melanoma,56.7 µM
same,TGI,OVCAR-4 ovarian,50.5 µM
same,TGI,HCT-116 colon,> 100 µM
same,TGI,KM12 colon,> 100 µM
same,TGI,A549 NSCLC,> 100 µM
same,TGI,M14 melanoma,> 100 µM
same,TGI,SNB-19 CNS,56.1 µM
same,TGI,DLD-1 colon,> 100 µM
same,TGI,SF-295 CNS,> 100 µM
same,TGI,KM20L2 colon,> 100 µM
same,TGI,M19-MEL melanoma,> 100 µM
same,TGI,SW-620 colon,> 100 µM
same,TGI,NCI-H226 lung,52.2 µM
same,TGI,786-0 renal,> 100 µM
same,TGI,COLO 205 colon,> 100 µM
same,TGI,HOP-92 NSCLC,47.8 µM
same,TGI,NCI-H522 lung,> 100 µM
same,TGI,OVCAR-5 ovarian,> 100 µM
same,TGI,UACC-257 melanoma,59.6 µM
same,TGI,NCI-H23 lung,43.1 µM
same,TGI,OVCAR-3 ovarian,80.5 µM
same,TGI,SNB-78 CNS,75.2 µM
same,TGI,SF-539 CNS,> 100 µM
same,TGI,K-562 leukemia,> 100 µM
same,TGI,NCI-H460 lung,> 100 µM
same,TGI,ACHN renal,92 µM
same,TGI,U251 CNS,56.5 µM
same,TGI,IGROV1 ovarian,92.6 µM
same,TGI,UO-31 renal,66.2 µM
same,TGI,TK-10 renal,51.1 µM
same,TGI,UACC-62 melanoma,40.3 µM
same,TGI,LXFL 529 NSCLC,71.4 µM
same,TGI,HT29 colon,> 100 µM
same,TGI,HOP-62 NSCLC,> 100 µM
same,TGI,SK-MEL-28 melanoma,> 100 µM
CC1C(=O)O[C@H]2C1CC[C@@]1(C)[C@H](O)CC[C@@]13C[C@]2(O)OO3 (some centres undefined),TGI,SK-OV-3 ovarian,> 100 µM
same,TGI,SF-268 CNS,> 100 µM
same,TGI,MOLT-4 leukemia,> 100 µM
same,TGI,CAKI-1 renal,> 100 µM
same,TGI,OVCAR-8 ovarian,> 100 µM
same,TGI,LOX IMVI melanoma,> 100 µM
same,TGI,OVCAR-4 ovarian,> 100 µM
same,TGI,HCT-116 colon,> 100 µM
same,TGI,RPMI-8226 leukemia,> 100 µM
same,TGI,A549 NSCLC,> 100 µM
same,TGI,M14 melanoma,> 100 µM
same,TGI,SR leukemia,> 100 µM
same,TGI,SNB-19 CNS,> 100 µM
same,TGI,DLD-1 colon,> 100 µM
same,TGI,SF-295 CNS,> 100 µM
same,TGI,HL-60(TB) leukemia,> 100 µM
same,TGI,DMS 273 small cell lung,> 100 µM
same,TGI,KM20L2 colon,> 100 µM
same,TGI,HCC-2998 colon,> 100 µM
same,TGI,M19-MEL melanoma,> 100 µM
same,TGI,SW-620 colon,> 100 µM
same,TGI,NCI-H226 lung,> 100 µM
same,TGI,786-0 renal,> 100 µM
same,TGI,COLO 205 colon,> 100 µM
same,TGI,HOP-92 NSCLC,> 100 µM
same,TGI,SK-MEL-5 melanoma,> 100 µM
same,TGI,OVCAR-5 ovarian,> 100 µM
same,TGI,UACC-257 melanoma,> 100 µM
same,TGI,NCI-H23 lung,> 100 µM
same,TGI,DMS 114 small cell lung,> 100 µM
same,TGI,SN12C renal,> 100 µM
same,TGI,OVCAR-3 ovarian,> 100 µM
same,TGI,HCT-15 colon,> 100 µM
same,TGI,A498 renal,> 100 µM
same,TGI,MALME-3M melanoma,> 100 µM
same,TGI,HOP-18 NSCLC,> 100 µM
same,TGI,CCRF-CEM leukemia,> 100 µM
same,TGI,K-562 leukemia,> 100 µM
same,TGI,NCI-H460 lung,> 100 µM
same,TGI,ACHN renal,> 100 µM
same,TGI,U251 CNS,> 100 µM
same,TGI,IGROV1 ovarian,> 100 µM
same,TGI,UO-31 renal,> 100 µM
same,TGI,TK-10 renal,> 100 µM
same,TGI,UACC-62 melanoma,> 100 µM
same,TGI,LXFL 529 NSCLC,> 100 µM
same,TGI,HT29 colon,> 100 µM
same,TGI,HOP-62 NSCLC,> 100 µM
same,TGI,SK-MEL-28 melanoma,> 100 µM
